Measured values from patent US10899733B2, “Inhibitors of PARPs that catalyze mono-ADP-ribosylation” (OREGON HEALTH & SCIENCE UNIVERSITY, priority 2017, dated 2021).

Columns and labels:
Format in all cases: biochemical
PARP6S = PARP6S (Homo sapiens, UniProt Q2NL67); experiment: PARP panel: ADP-ribosylation of SRPK2 using 6-a-NAD+
PARP10cat = target: T1, PARP10cat (Homo sapiens, UniProt Q53GL7); experiment: Inhibition of PARP10cat-mediated ADP-ribosylation of SRPK2 using NAD+ (100 μM)
T1 sequence (Q53GL7 806-1025 limits assumed): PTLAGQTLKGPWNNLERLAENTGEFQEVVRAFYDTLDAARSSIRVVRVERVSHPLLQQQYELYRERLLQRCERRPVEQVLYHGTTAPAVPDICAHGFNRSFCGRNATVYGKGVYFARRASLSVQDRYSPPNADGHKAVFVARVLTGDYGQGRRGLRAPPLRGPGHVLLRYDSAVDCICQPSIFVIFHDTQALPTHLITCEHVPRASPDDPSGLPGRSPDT

PARP12 = target: T2, PARP12 (Homo sapiens, UniProt Q9H0J9); experiment: PARP panel: ADP-ribosylation of SRPK2 using 6-a-NAD+
T2 sequence (Q9H0J9 1-701): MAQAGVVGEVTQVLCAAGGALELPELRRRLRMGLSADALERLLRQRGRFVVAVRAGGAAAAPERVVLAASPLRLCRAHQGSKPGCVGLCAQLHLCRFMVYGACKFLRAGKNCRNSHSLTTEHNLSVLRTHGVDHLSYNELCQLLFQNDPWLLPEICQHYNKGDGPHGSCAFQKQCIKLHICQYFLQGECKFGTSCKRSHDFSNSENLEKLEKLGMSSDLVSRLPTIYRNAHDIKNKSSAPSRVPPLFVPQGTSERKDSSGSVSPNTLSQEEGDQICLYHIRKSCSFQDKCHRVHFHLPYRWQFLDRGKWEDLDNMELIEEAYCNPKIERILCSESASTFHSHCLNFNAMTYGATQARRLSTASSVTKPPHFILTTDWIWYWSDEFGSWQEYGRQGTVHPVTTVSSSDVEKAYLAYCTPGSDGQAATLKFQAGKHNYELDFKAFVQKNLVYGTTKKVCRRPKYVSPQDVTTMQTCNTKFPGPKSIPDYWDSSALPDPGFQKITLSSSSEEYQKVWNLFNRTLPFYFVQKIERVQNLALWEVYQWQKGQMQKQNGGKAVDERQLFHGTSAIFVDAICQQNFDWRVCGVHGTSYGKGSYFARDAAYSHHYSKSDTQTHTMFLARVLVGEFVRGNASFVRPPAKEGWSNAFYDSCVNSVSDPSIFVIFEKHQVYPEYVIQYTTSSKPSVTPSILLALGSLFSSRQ

PARP8 = target: T3, PARP8 (Homo sapiens, UniProt Q8N3A8); experiment: as above
T3 sequence (Q8N3A8 1-854): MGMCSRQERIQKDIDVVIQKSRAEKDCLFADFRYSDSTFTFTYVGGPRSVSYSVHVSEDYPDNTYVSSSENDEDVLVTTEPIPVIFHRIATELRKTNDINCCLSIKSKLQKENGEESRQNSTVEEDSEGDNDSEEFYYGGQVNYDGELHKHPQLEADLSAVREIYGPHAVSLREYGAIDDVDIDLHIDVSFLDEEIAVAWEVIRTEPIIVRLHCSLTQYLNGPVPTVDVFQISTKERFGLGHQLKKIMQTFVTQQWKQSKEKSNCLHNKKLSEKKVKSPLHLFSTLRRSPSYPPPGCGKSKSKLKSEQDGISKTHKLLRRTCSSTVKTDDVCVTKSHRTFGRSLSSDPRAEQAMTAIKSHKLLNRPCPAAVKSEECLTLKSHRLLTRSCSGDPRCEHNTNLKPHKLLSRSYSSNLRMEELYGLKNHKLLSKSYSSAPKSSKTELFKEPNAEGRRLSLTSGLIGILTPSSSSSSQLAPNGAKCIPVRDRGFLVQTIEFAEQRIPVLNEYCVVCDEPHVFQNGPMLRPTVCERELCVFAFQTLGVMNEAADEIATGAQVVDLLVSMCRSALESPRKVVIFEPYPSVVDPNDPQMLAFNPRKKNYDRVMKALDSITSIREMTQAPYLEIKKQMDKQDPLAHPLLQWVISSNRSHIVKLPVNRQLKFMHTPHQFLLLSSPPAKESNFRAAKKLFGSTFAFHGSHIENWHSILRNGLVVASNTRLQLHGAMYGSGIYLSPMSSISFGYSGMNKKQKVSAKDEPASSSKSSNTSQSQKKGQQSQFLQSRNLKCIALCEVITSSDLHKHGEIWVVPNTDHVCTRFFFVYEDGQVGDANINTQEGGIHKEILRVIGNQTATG

Chain of PARP6S (Q2NL67 1-518 isoform Q2NL67-2): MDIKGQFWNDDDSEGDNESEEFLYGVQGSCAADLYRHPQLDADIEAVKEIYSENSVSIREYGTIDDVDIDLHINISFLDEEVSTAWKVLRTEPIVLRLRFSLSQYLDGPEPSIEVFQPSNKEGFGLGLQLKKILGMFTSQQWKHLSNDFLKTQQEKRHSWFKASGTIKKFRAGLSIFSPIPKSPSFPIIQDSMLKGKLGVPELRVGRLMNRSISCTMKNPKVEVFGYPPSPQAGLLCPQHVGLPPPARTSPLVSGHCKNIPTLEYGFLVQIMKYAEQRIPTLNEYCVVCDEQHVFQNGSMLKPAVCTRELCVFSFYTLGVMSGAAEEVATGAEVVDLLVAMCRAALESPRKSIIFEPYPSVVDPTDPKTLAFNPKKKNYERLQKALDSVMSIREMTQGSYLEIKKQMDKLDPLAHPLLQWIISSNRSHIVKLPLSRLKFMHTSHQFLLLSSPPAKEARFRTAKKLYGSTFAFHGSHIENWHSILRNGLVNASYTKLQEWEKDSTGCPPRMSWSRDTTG

Compound: Cc1c(-c2ccnc(C(F)(F)F)c2)ccc2c1CCNC2=O [Compound 22, 5-methyl-6-(2-(trifluoromethyl)pyridin-4-yl)-3,4-dihydroisoquinolin-1(2H)-one]
- IC50 (PARP6S; 6-a-NAD+): > 30 µM
- PARP/PARP10 (PARP6S; PARP6S over PARP10cat): >10
- selectivity for PARP10 over PARP11 (PARP10cat): 29 fold
- improvement in selectivity for PARP10 over PARP11 compared to parent compound (PARP10cat; 12 vs 8, 14 vs 3, 20, 22 vs 16, 23, 24 vs 15): ~2 fold
- PARP10cat pIC50 ± S.E.M. (PARP10cat; ADP-ribosylation of SRPK2, NAD+ 100 μM): 5.74 ± 0.02
- PARP11/PARP10 (PARP10cat; ratio of IC50 values, PARP11 over PARP10cat): 29
- IC50 (PARP12; 6-a-NAD+): > 30 µM
- PARP/PARP10 (PARP12; PARP12 over PARP10cat): >10
- IC50 (PARP8; 6-a-NAD+): > 30 µM
- PARP/PARP10 (PARP8; PARP8 over PARP10cat): >10
